From patent US10030006B2, “Coumarin based Hsp90 inhibitors with urea and ether substituents” (University of Kansas, priority 2013, dated 2018) come the findings set out here.

Molecules are shown by their SMILES. Like-named read-outs stand apart in the source and are kept apart here. Where only a bound is given, the exact number is not on record here.

Holding throughout (format): cell-based
One assay relates to HCT-116. Put plainly: Anti-proliferation assay, HCT-116. To be noted: Homo sapiens, HCT-116. Put shortly: (§1)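 Viability after 72 h compound treatment at 37 °C was measured by MTS/PMS, normalised to 1% DMSO vehicle (100% proliferation). Cells plated at 2000/well and left overnight before dosing; DMSO 1% final. IC50 derived from separate experiments run in triplicate.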
A further assay relates to HMLE. As to the kind of experiment: Anti-proliferation assay, HMLE (normal). To be noted: HMLE. The method in brief: as §1
Another assay concerns A-549. As to the kind of experiment: Anti-proliferation assay, A-549. To be noted: Homo sapiens, A549. The method in brief:
as §1

The next assay relates to JMAR. Put plainly: Anti-proliferation assay, JMAR. To be noted: JMAR, HSNCC. Put shortly:
as §1

A further assay has as its system MDA1986. As to the kind of experiment: Anti-proliferation assay, MDA1986. The conditions noted are these: MDA1986, HSNCC. Put shortly:
as §1

The next assay deals with MDAMB231. As to the kind of experiment: Anti-proliferation assay, MDAMB231. The conditions noted are these: Homo sapiens, MDA-MB-231, Tri-Neg. Put shortly:
as §1

The subject of a further assay is PC-3. As to the kind of experiment: Anti-proliferation assay, PC-3. The conditions noted are these: Homo sapiens, PC-3, Prostate Cancer. The method in brief: as §1
The next assay has as its system MRC5. Put plainly: Anti-proliferation assay, MRC5 (normal). The conditions noted are these: Homo sapiens. Put shortly: as §1
Assay [1] has as its system SKBr3 (estrogen receptor negative, Her2 over-expressing breast cancer cells). As to the kind of experiment: Anti-proliferation assay (MTS/PMS, 72 h), SKBr3. To be noted: Homo sapiens, SK-BR-3, Breast Cancer, read-out: IC50 SKBr3.
The subject of assay [2] is MCF-7 (estrogen receptor positive breast cancer cells). As to the kind of experiment: Anti-proliferation assay (MTS/PMS, 72 h), MCF-7. The conditions noted are these: Homo sapiens, MCF7, Breast Cancer, read-out: IC50 MCF-3.
The subject of the next assay is DRO81-1. Put plainly: Anti-proliferation assay, DRO81-1. To be noted: Thyroid. The method in brief:
as §1

For the next assay, the system named is BCPAP. Put plainly: Anti-proliferation assay, BCPAP. The conditions noted are these: Homo sapiens, BCPAP, Thyroid. The procedure:
Cells were maintained in a 1:1 mixture of Advanced DMEM/F12 (Gibco) supplemented with non-essential amino acids, L-glutamine (2 mM), streptomycin (500 μg/mL), penicillin (100 units/mL), and 10% FBS. Cells were grown to confluence in a humidified atmosphere (37° C., 5% CO2), seeded (2000/well, 100 μL) in 96-well plates, and allowed to attach overnight. Compound at varying concentrations in DMSO (1% DMSO final concentration) was added, and cells were returned to the incubator for 72 h. At 72 h, the number of viable cells was determined using an MTS/PMS cell proliferation kit (Promega) per the manufacturer's instructions. Cells incubated in 1% DMSO were used at 100% proliferation, and values were adjusted accordingly. IC50 values were calculated from separate experiments performed in triplicate using GraphPad Prism.

The mark [3] stands for this setting: Table 6, substituted phenyl ureas.
The mark [4] stands for this setting: MRC5, Table 6, substituted phenyl ureas.
Setting [5] is: Table 7, prenylated phenyl ureas.
Where [6] appears, read: MRC5, Table 7, prenylated phenyl ureas.

What is called IC50 is the concentration at which inhibition is half-maximal. Consider `COc1ccc(NC(=O)Nc2cc3ccc(OC4CCN(C)CC4)c(C)c3oc2=O)cc1-c1cccc(O)c1` [OMe, OH, 1-(3′-hydroxy-6-methoxy-[1,1′-biphenyl]-3-yl)-3-(8-methyl-7-((1-methylpiperidin-4-yl)oxy)-2-oxo-2H-chromen-3-yl)urea], for which the IC50 was 420 nM in the assay with HCT-116 (Table 8, biphenyl ureas); 3700 nM in the assay with HMLE (Table 8, biphenyl ureas); 410 nM with A-549 (Table 8, biphenyl ureas); 960 nM in the assay on JMAR (Table 8, biphenyl ureas); 2800 nM with MDA1986 (Table 8, biphenyl ureas); 95 nM with MDAMB231 (Table 8, biphenyl ureas). Besides, the IC50 was 600 nM in the assay with PC-3 (Table 8, biphenyl ureas); 9800 nM with MRC5 (MRC5, Table 8, biphenyl ureas); 390 nM in assay [1] (Table 8, biphenyl ureas); 290 nM in [2] (Table 8, biphenyl ureas); 1200 nM in the assay with DRO81-1 (Table 8, biphenyl ureas); 1940 nM with BCPAP (Table 8, biphenyl ureas).
With `CC(=O)Oc1ccc(NC(=O)Nc2cc3ccc(OC4CCN(C)CC4)c(C)c3oc2=O)cc1` [p-OAc, 4-(3-(8-methyl-7-((1-methylpiperidin-4-yl)oxy)-2-oxo-2H-chromen-3-yl)ureido)phenyl acetate], the IC50 was 2610 nM with HCT-116 (setting [3]); 15900 nM in the assay with HMLE (setting [3]); 1510 nM with A-549 (setting [3]); 3500 nM in the assay with JMAR (setting [3]); 1980 nM in the assay with MDA1986 (setting [3]); 850 nM with MDAMB231 (setting [3]). Moreover, the IC50 came out at 1150 nM in the assay on PC-3 (setting [3]); 15500 nM in the assay with MRC5 (setting [4]); 1480 nM in [1] (setting [3]); 1720 nM in [2] (setting [3]); 3700 nM with DRO81-1 (setting [3]); 5530 nM in the assay on BCPAP (setting [3]).
`Cc1c(OC2CCN(C)CC2)ccc2cc(NC(=O)Nc3ccc(N(C)C)cc3)c(=O)oc12` [p-N-dimethylamine, 1-(4-(dimethylamino)phenyl)-3-(8-methyl-7-((1-methylpiperidin-4-yl)oxy)-2-oxo-2H-chromen-3-yl)urea]: the IC50 is 9340 nM with HCT-116 (setting [3]); 960 nM in the assay on HMLE (setting [3]); 2700 nM in the assay with A-549 (setting [3]); 770 nM in the assay with JMAR (setting [3]); 17500 nM in the assay with MDA1986 (setting [3]); 1400 nM in the assay with MDAMB231 (setting [3]). Also, the IC50 is 7960 nM in the assay with PC-3 (setting [3]); 14400 nM in the assay with MRC5 (setting [4]); 1110 nM in assay [1] (setting [3]); 1000 nM in assay [2] (setting [3]); > 25000 nM in the assay with DRO81-1 (setting [3]); 740 nM in the assay with BCPAP (setting [3]).
For `Cc1c(OC2CCN(C)CC2)ccc2cc(NC(=O)Nc3ccc(OC(F)(F)F)cc3)c(=O)oc12` [p-OCF3, 1-(8-methyl-7-((1-methylpiperidin-4-yl)oxy)-2-oxo-2H-chromen-3-yl)-3-(4-(trifluoromethoxy)phenyl)urea], the IC50 came out at 270 nM in the assay on HCT-116 (setting [3]); 4100 nM with HMLE (setting [3]); 310 nM in the assay with A-549 (setting [3]); 3600 nM in the assay on JMAR (setting [3]); 870 nM with MDA1986 (setting [3]); 690 nM in the assay on MDAMB231 (setting [3]). Also, the IC50 came to 160 nM in the assay with PC-3 (setting [3]); 3300 nM with MRC5 (setting [4]); 410 nM in [1] (setting [3]); 400 nM in [2] (setting [3]); 230 nM with DRO81-1 (setting [3]); 870 nM in the assay with BCPAP (setting [3]).
Regarding `CC(=O)c1cccc(NC(=O)Nc2cc3ccc(OC4CCN(C)CC4)c(C)c3oc2=O)c1` [m-COCH3, 1-(3-acetylphenyl)-3-(8-methyl-7-((1-methylpiperidin-4-yl)oxy)-2-oxo-2H-chromen-3-yl)urea], the IC50 with HCT-116 (setting [3]) amounted to 720 nM; in the assay with HMLE (setting [3]) it was 1900 nM; in the assay with A-549 (setting [3]), 540 nM; in the assay with JMAR (setting [3]) it was 15700 nM; with MDA1986 (setting [3]), 21000 nM; with MDAMB231 (setting [3]) it was 610 nM. Moreover, the IC50 is 1230 nM in the assay with PC-3 (setting [3]); > 25000 nM with MRC5 (setting [4]); 830 nM in assay [1] (setting [3]); 1170 nM in assay [2] (setting [3]); 13600 nM in the assay on DRO81-1 (setting [3]); 270 nM in the assay on BCPAP (setting [3]).
In the case of `COc1cccc(-c2cc(NC(=O)Nc3cc4ccc(OC5CCN(C)CC5)c(C)c4oc3=O)ccc2OC)c1` [OMe, OMe, 1-(3′,6-dimethoxy-[1,1′-biphenyl]-3-yl)-3-(8-methyl-7-((1-methylpiperidin-4-yl)oxy)-2-oxo-2H-chromen-3-yl)urea], the IC50 in the assay with HCT-116 (Table 8, biphenyl ureas) is 460 nM; with HMLE (Table 8, biphenyl ureas), 1600 nM; in the assay on A-549 (Table 8, biphenyl ureas), 470 nM; in the assay on JMAR (Table 8, biphenyl ureas) it was 500 nM; in the assay on MDA1986 (Table 8, biphenyl ureas), 1390 nM; in the assay with MDAMB231 (Table 8, biphenyl ureas), 610 nM. The IC50 in the assay with PC-3 (Table 8, biphenyl ureas) was 470 nM; in the assay with MRC5 (MRC5, Table 8, biphenyl ureas), 4300 nM; in [1] (Table 8, biphenyl ureas) it was 170 nM; in assay [2] (Table 8, biphenyl ureas) it was 200 nM; in the assay with DRO81-1 (Table 8, biphenyl ureas), 480 nM; in the assay with BCPAP (Table 8, biphenyl ureas), 390 nM.
With `Cc1cccc(NC(=O)Nc2cc3ccc(OC4CCN(C)CC4)c(C)c3oc2=O)c1` [m-CH3, 1-(8-methyl-7-((1-methylpiperidin-4-yl)oxy)-2-oxo-2H-chromen-3-yl)-3-(m-tolyl)urea], the IC50 is 1110 nM in the assay on HCT-116 (setting [3]); 3100 nM with HMLE (setting [3]); 1210 nM in the assay on A-549 (setting [3]); 1800 nM in the assay on JMAR (setting [3]); 2020 nM in the assay with MDA1986 (setting [3]); 3500 nM in the assay on MDAMB231 (setting [3]). Besides, the IC50 with PC-3 (setting [3]) turned out to be 840 nM; in the assay on MRC5 (setting [4]) it was 4300 nM; in assay [1] (setting [3]), 840 nM; in [2] (setting [3]), 550 nM; in the assay with DRO81-1 (setting [3]), 540 nM; with BCPAP (setting [3]), 3540 nM.
In the case of `CC(=O)Oc1ccc(NC(=O)Nc2cc3ccc(OC4CCN(C)CC4)c(C)c3oc2=O)cc1CC=C(C)C` [OAc, 4-(3-(8-methyl-7-((1-methylpiperidin-4-yl)oxy)-2-oxo-2H-chromen-3-yl)ureido)-2-(3-methylbut-2-en-1-yl)phenyl acetate], the IC50 is 340 nM with HCT-116 (setting [5]); 7200 nM with HMLE (setting [5]); 380 nM with A-549 (setting [5]); 870 nM in the assay on JMAR (setting [5]); 1320 nM in the assay with MDA1986 (setting [5]); 750 nM in the assay on MDAMB231 (setting [5]). Further, the IC50 amounted to 380 nM in the assay on PC-3 (setting [5]); 1800 nM in the assay with MRC5 (setting [6]); 540 nM in [1] (setting [5]); 490 nM in [2] (setting [5]); 530 nM with DRO81-1 (setting [5]); 129 nM in the assay with BCPAP (setting [5]).
As for `COc1ccc(NC(=O)Nc2cc3ccc(OC4CCN(C)CC4)c(C)c3oc2=O)cc1-c1cccc(OC(C)=O)c1` [OMe, OAc, 2′-methoxy-5′-(3-(8-methyl-7-((1-methylpiperidin-4-yl)oxy)-2-oxo-2H-chromen-3-yl)ureido)-[1,1′-biphenyl]-3-yl acetate], the IC50 in the assay on HCT-116 (Table 8, biphenyl ureas) is 3390 nM; in the assay with HMLE (Table 8, biphenyl ureas), 1000 nM; with A-549 (Table 8, biphenyl ureas), 540 nM; in the assay with JMAR (Table 8, biphenyl ureas) it was 2200 nM; in the assay on MDA1986 (Table 8, biphenyl ureas), 850 nM; in the assay on MDAMB231 (Table 8, biphenyl ureas), 390 nM. Also, the IC50 in the assay on PC-3 (Table 8, biphenyl ureas) is 1040 nM; in the assay on MRC5 (MRC5, Table 8, biphenyl ureas), 3100 nM; in assay [1] (Table 8, biphenyl ureas) it was 260 nM; in [2] (Table 8, biphenyl ureas), 270 nM; in the assay with DRO81-1 (Table 8, biphenyl ureas), 260 nM; with BCPAP (Table 8, biphenyl ureas), 16 nM.
Take `COc1ccc(NC(=O)Nc2cc3ccc(OC4CCN(C)CC4)c(C)c3oc2=O)cc1CC=C(C)C` [OMe, 1-(4-methoxy-3-(3-methylbut-2-en-1-yl)phenyl)-3-(8-methyl-7-((1-methylpiperidin-4-yl)oxy)-2-oxo-2H-chromen-3-yl)urea]: the IC50 was 300 nM in the assay on HCT-116 (setting [5]); 6500 nM with HMLE (setting [5]); 230 nM with A-549 (setting [5]); 800 nM in the assay on JMAR (setting [5]); 850 nM with MDA1986 (setting [5]); 830 nM in the assay on MDAMB231 (setting [5]). Besides, the IC50 with PC-3 (setting [5]) worked out at 230 nM; in the assay with MRC5 (setting [6]), 2640 nM; in assay [1] (setting [5]) it was 510 nM; in [2] (setting [5]) it was 370 nM; with DRO81-1 (setting [5]) it was 210 nM; in the assay on BCPAP (setting [5]), 1340 nM.
